Measurements reported in article PMC9866191, “Novel 9-Benzylaminoacridine Derivatives as Dual Inhibitors of Phosphodiesterase 5 and Topoisomerase II for the Treatment of Colon Cancer” (Molecules, 2023).

What was measured:
[1] = target: T1, PDE5A (Homo sapiens, UniProt O76074); experiment: Phosphodiesterase 5 HTRF cGMP assay; type: biochemical; details: for IC50: means ± S.D. (n = 4), read-out: PDE5 IC50; for inhibition at 10 µM: read-out: PDE5 % Inhibition at 10 μM
T1 construct: purchased BPS Bioscience, San Diego, CA, USA
Experimental: All the synthesized acridine derivatives were tested for their in vitro ability to inhibit PDE5A at a screening dose of 10 µM.
The enzyme activities of phosphodiesterase 5 (PDE5) were measured using an HTRF cGMP assay kit (Cisbio, Codolet, France). […] Afterward, the HTRF reagent (cGMP-d2 and anti-cGMP-cryptate) was added for 1 h at 25 °C, and PDE activity was assayed on an HTRF reader (Tecan Infinite F200 Pro).

[2] = tested on: panel of 60 human tumor cell lines; experiment: NCI 60-cell line one-dose screen (mean); type: cell-based; details: mean of the 60 cell lines, single dose 10^−5 M, read-out: Mean % Growth Inhibition
How it was run: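 Percent inhibition of cell growth was recorded after exposure to 10^−5 M compound. This primary screen used the full NCI-60 panel of human tumour lines.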

[3] = tested on: 786-0; experiment: NCI-60 one-dose screen; type: cell-based; details: Homo sapiens; 786-0, Renal Cancer panel; single dose 10^−5 M; read-out: Growth inhibition %
[4] = tested on: A549/ATCC; experiment: NCI-60 one-dose screen; type: cell-based; details: Homo sapiens, Non-small cell lung panel, single dose 10^−5 M, read-out: Growth inhibition %
[5] = tested on: ACHN; experiment: NCI-60 one-dose screen; type: cell-based; details: Homo sapiens, Renal Cancer panel, single dose 10^−5 M, read-out: Growth inhibition %
[6] = tested on: CAKI-1; experiment: NCI-60 one-dose screen; type: cell-based; details: Homo sapiens; CAKI-1, Renal Cancer panel; single dose 10^−5 M; read-out: Growth inhibition %
[7] = tested on: HCT-116; experiment: NCI-60 one-dose screen; type: cell-based; details: Homo sapiens, read-out: Growth inhibition %
[8] = tested on: HL-60(TB); experiment: NCI-60 one-dose screen; type: cell-based; details: Homo sapiens, Leukemia panel, single dose 10^−5 M, read-out: Growth inhibition %
[9] = tested on: HOP-62; experiment: NCI-60 one-dose screen; type: cell-based; details: Homo sapiens; HOP-62, Non-small cell lung panel; single dose 10^−5 M; read-out: Growth inhibition %
[10] = tested on: HOP-92; experiment: NCI-60 one-dose screen; type: cell-based; details: Homo sapiens; HOP-92, Non-small cell lung panel; single dose 10^−5 M; read-out: Growth inhibition %
[11] = tested on: HS 578T; experiment: NCI-60 one-dose screen; type: cell-based; details: Homo sapiens, Breast Cancer panel, single dose 10^−5 M, read-out: Growth inhibition %
[12] = tested on: MCF7; experiment: NCI-60 one-dose screen; type: cell-based; details: Homo sapiens; MCF7, Breast Cancer panel; single dose 10^−5 M; read-out: Growth inhibition %
[13] = tested on: MDA-MB-231/ATCC; experiment: NCI-60 one-dose screen; type: cell-based; details: Homo sapiens, Breast Cancer panel, single dose 10^−5 M, read-out: Growth inhibition %
[14] = tested on: MDA-MB-435; experiment: NCI-60 one-dose screen; type: cell-based; details: Homo sapiens; MDA-MB-435, Melanoma panel; single dose 10^−5 M; read-out: Growth inhibition %
[15] = tested on: MDA-MB-468; experiment: NCI-60 one-dose screen; type: cell-based; details: Homo sapiens; MDA-MB-468, Breast Cancer panel; single dose 10^−5 M; read-out: Growth inhibition %
[16] = tested on: MOLT-4; experiment: NCI-60 one-dose screen; type: cell-based; details: Homo sapiens; MOLT-4, Leukemia panel; single dose 10^−5 M; read-out: Growth inhibition %
[17] = tested on: NCI-H23; experiment: NCI-60 one-dose screen; type: cell-based; details: Homo sapiens; NCI-H23, Non-small cell lung panel; single dose 10^−5 M; read-out: Growth inhibition %
[18] = tested on: NCI-H322M; experiment: NCI-60 one-dose screen; type: cell-based; details: Homo sapiens, Non-small cell lung panel, single dose 10^−5 M, read-out: Growth inhibition %
[19] = tested on: NCI-H460; experiment: NCI-60 one-dose screen; type: cell-based; details: Homo sapiens; NCI-H460, Non-small cell lung panel; single dose 10^−5 M; read-out: Growth inhibition %
[20] = tested on: NCI-H522; experiment: NCI-60 one-dose screen; type: cell-based; details: Homo sapiens; NCI-H522, Non-small cell lung panel; single dose 10^−5 M; read-out: Growth inhibition %
[21] = tested on: NCI/ADR-RES; experiment: NCI-60 one-dose screen; type: cell-based; details: Homo sapiens, Ovarian Cancer panel, single dose 10^−5 M, read-out: Growth inhibition %
[22] = tested on: OVCAR-3; experiment: NCI-60 one-dose screen; type: cell-based; details: Homo sapiens; OVCAR-3, Ovarian Cancer panel; single dose 10^−5 M; read-out: Growth inhibition %
[23] = tested on: OVCAR-4; experiment: NCI-60 one-dose screen; type: cell-based; details: Homo sapiens; OVCAR-4, Ovarian Cancer panel; single dose 10^−5 M; read-out: Growth inhibition %
[24] = tested on: SK-MEL-28; experiment: NCI-60 one-dose screen; type: cell-based; details: Homo sapiens; SK-MEL-28, Melanoma panel; single dose 10^−5 M; read-out: Growth inhibition %
[25] = tested on: SN12C; experiment: NCI-60 one-dose screen; type: cell-based; details: Homo sapiens, Renal Cancer panel, single dose 10^−5 M, read-out: Growth inhibition %
[26] = tested on: SNB-75; experiment: NCI-60 one-dose screen; type: cell-based; details: Homo sapiens; SNB-75, CNS Cancer panel; single dose 10^−5 M; read-out: Growth inhibition %
[27] = tested on: UO-31; experiment: NCI-60 one-dose screen; type: cell-based; details: Homo sapiens; UO-31, Renal Cancer panel; single dose 10^−5 M; read-out: Growth inhibition %
[28] = tested on: SF-268; experiment: NCI-60 one-dose screen; type: cell-based; details: Homo sapiens; SF-268, CNS Cancer panel; single dose 10^−5 M; read-out: Growth inhibition %
[29] = tested on: IGROV1; experiment: NCI-60 one-dose screen; type: cell-based; details: Homo sapiens, IGROV-1; IGROV1, Ovarian Cancer panel; single dose 10^−5 M; read-out: Growth inhibition %
[30] = tested on: HCT-116; experiment: MTT cell proliferation assay, HCT-116; details: for % Inhibition at 10 µM: 72 h MTT, means ± SD; for IC50: read-out: IC50 μM, 72 h MTT, means ± SD, three experiments
Experimental: In the MTT assay, 96-well culture plates were used. A total of 7 × 10^4 cells per well were seeded, and test materials were added to the cells at various concentrations [47, 48]. Human cancer and non-cancer cell lines were purchased commercially from the American Type Culture Collection (ATCC). After 72 h, the cytotoxicity of the compounds and paclitaxel (as a positive control group) was detected using the MTT method (thiazolyl blue tetrazolium bromide, Sigma-M2128). Absorbance values at 570 and 620 nm (OD = OD570–OD620) were measured using an ELISA reader (Anthos Labtec Instruments, Salzburg, Austria).

Row | Compound | IC50 [1] [µM] | inhibition at 10 µM [1] [%] | inhibition at 10 µM [2] [%] | inhibition at 10 µM [3] [%] | inhibition at 10 µM [4] [%] | inhibition at 10 µM [5] [%] | inhibition at 10 µM [6] [%] | inhibition at 10 µM [7] [%] | inhibition at 10 µM [8] [%] | inhibition at 10 µM [9] [%] | inhibition at 10 µM [10] [%] | inhibition at 10 µM [11] [%] | inhibition at 10 µM [12] [%] | inhibition at 10 µM [13] [%] | inhibition at 10 µM [14] [%] | inhibition at 10 µM [15] [%] | inhibition at 10 µM [16] [%] | inhibition at 10 µM [17] [%] | inhibition at 10 µM [18] [%] | inhibition at 10 µM [19] [%] | other results
1 | Cc1ccc(CNc2c3ccccc3nc3ccccc23)cc1 [Compound 4, Acridin-9-yl-(4-methylbenzyl)-amine] | 4.44 ± 1.82 | 74 ± 12.4 | 74.8 | 74.6 | 74 | 86 | 81.4 | 88 | 74.5 | 56.4 | 96.8 | 61.5 | 91 | 56.8 | 68.8 | 92.8 | 95.7 | 70.7 | 60.2 | 91.2 | inhibition at 10 µM [20]: 51%; inhibition at 10 µM [21]: 73.9%; inhibition at 10 µM [22]: 65.8%; inhibition at 10 µM [23]: 75.5%; inhibition at 10 µM [24]: 40.5%; inhibition at 10 µM [25]: 75.1%; inhibition at 10 µM [26]: 58.3%; inhibition at 10 µM [27]: 88%; inhibition at 10 µM [28]: 48.1%; inhibition at 10 µM [29]: 80.6%; % Inhibition at 10 µM [30]: 69.31 ± 2.09%; IC50 [30]: 3.59 ± 0.27 µM
2 | COc1ccccc1CNc1c2ccccc2nc2ccccc12 [Compound 5, Acridin-9-yl-(2-methoxybenzyl)-amine] | > 10 | 45.1 ± 4.54 | 60.8 | 60.7 | 65.8 | 77.3 | 54.3 | 87.3 | 55.2 | 55.5 | 81.8 | 38 | 83.2 | 42.4 | 57.4 | 71.7 | 79.3 | 69.1 | 51.4 | 89.8 | inhibition at 10 µM [20]: 37.6%; inhibition at 10 µM [21]: 65.2%; inhibition at 10 µM [22]: 45.7%; inhibition at 10 µM [23]: 57.8%; inhibition at 10 µM [24]: 20%; inhibition at 10 µM [25]: 65.3%; inhibition at 10 µM [26]: 36.5%; inhibition at 10 µM [27]: 66.3%; inhibition at 10 µM [28]: 34.9%; inhibition at 10 µM [29]: 73.7%; % Inhibition at 10 µM [30]: 63.71 ± 0.62%; IC50 [30]: 6.83 ± 0.31 µM
3 | Fc1ccccc1CNc1c2ccccc2nc2ccccc12 [Compound 8, Acridin-9-yl-(2-fluorobenzyl)-amine] | 7.16 ± 2.75 | 57.5 ± 6.43 | 56.5 | 60 | 65.9 | 76.9 | 64.2 | 86.1 | 43.1 | 47.5 | 77.3 | 30.9 | 83.8 | 46 | 43.8 | 78.2 | 82.7 | 55.9 | 49.7 | 86.5 | inhibition at 10 µM [20]: 34.2%; inhibition at 10 µM [21]: 62%; inhibition at 10 µM [22]: 35.9%; inhibition at 10 µM [23]: 60%; inhibition at 10 µM [24]: 15.9%; inhibition at 10 µM [25]: 60.4%; inhibition at 10 µM [26]: 28.3%; inhibition at 10 µM [27]: 72.3%; inhibition at 10 µM [28]: 20.1%; inhibition at 10 µM [29]: 63.4%; % Inhibition at 10 µM [30]: 66.44 ± 0.80%; IC50 [30]: 3.05 ± 0.15 µM
4 | Fc1cccc(CNc2c3ccccc3nc3ccccc23)c1 [Compound 9, Acridin-9-yl-(3-fluorobenzyl)-amine] | 7.49 ± 2.2 | 55.9 ± 5.78 | 64.2 | 63.5 | 70.8 | 82.9 | 73 | 86.6 | 53 | 52.1 | 104 | 36.1 | 92.1 | 69.4 | 51.1 | 99.4 | 85.1 | 66.1 | 59.8 | 87.3 | inhibition at 10 µM [20]: 62.2%; inhibition at 10 µM [21]: 69.9%; inhibition at 10 µM [22]: 33%; inhibition at 10 µM [23]: 69.5%; inhibition at 10 µM [24]: 21.5%; inhibition at 10 µM [25]: 67.2%; inhibition at 10 µM [26]: 37%; inhibition at 10 µM [27]: 76%; inhibition at 10 µM [28]: 37.9%; inhibition at 10 µM [29]: 74.4%; % Inhibition at 10 µM [30]: 57.06 ± 1.36%; IC50 [30]: 7.3 ± 0.33 µM
5 | Fc1ccc(CNc2c3ccccc3nc3ccccc23)cc1 [Compound 10, Acridin-9-yl-(4-fluorobenzyl)-amine] | > 10 | 47 ± 7.06 | 72.3 | 72.4 | 76.3 | 87.5 | 74.5 | 87.5 | 78.8 | 57 | 82.8 | 60.5 | 92.9 | 61.7 | 65.2 | 88.5 | 91.3 | 68.3 | 61.5 | 91.2 | inhibition at 10 µM [20]: 47.6%; inhibition at 10 µM [21]: 70.3%; inhibition at 10 µM [22]: 61.3%; inhibition at 10 µM [23]: 66.8%; inhibition at 10 µM [24]: 31.8%; inhibition at 10 µM [25]: 74.3%; inhibition at 10 µM [26]: 57.9%; inhibition at 10 µM [27]: 86.5%; inhibition at 10 µM [28]: 46.8%; inhibition at 10 µM [29]: 78.1%; % Inhibition at 10 µM [30]: 67.57 ± 0.29%; IC50 [30]: 2.75 ± 0.04 µM
